Test results taken from patent publication US8512707B2, “Methods of treating drug-resistant cancers” (Seattle Genetics, Inc., priority 2006, dated 2013).
Read-outs that look alike come from different tables or passages of the source. Square brackets hold non-standard residues; d marks the D form. Peptide text beside a SMILES is read from it. * marks the point of attachment. Dolaproine = CO[C@@H]([C@@H]1CCCN1)[C@@H](C)C(=O)O; Dil = CC[C@H](C)[C@H](NC)[C@@H](CC(=O)O)OC; X1 = C[C@@H](N*)[C@@H](O)c1ccccc1; NMeV = CN[C@H](C(=O)O)C(C)C

What was measured:
[1] = test system: parental and drug resistant cell line pairs; assay: Drug sensitivity across the panel of parental/drug resistant cell line pairs; assay type: cell-based; settings: for Mean Fold Resistance: average across the cell line panel; for difference in sensitivity of parent and resistant line: statement over all cell line pairs of Table 3
Protocol: (§1) The following parental and drug resistant cell lines were used to determine their MMAF-drug sensitivity.
(§2) The activity of various drugs against parental and drug resistant subline pairs was tested. The pairs of cell lines tested were A2780 and A2780adr; MES-SA and MES-SA/Dx5; NCI-H69 and NCI-H69/LX-4; and HL60 and HL60/RV. Cell lines were plated and incubated 24 hr. Culture medium containing serial dilutions of the drugs doxorubicin, vincristine, cisplatin, dolastatin 10 or MMAF were then added. The cultures were incubated to 96 hr and labeled with resazurin. Sensitivity to each drug was measured by determining the IC50 of the parent and drug resistant subline pair. The drug resistance (as “fold resistance”) was determined from the IC50 value of the resistant cell line divided by the IC50 value of the parental line. Mean fold resistance is the average across the cell line panel.

NCI/ADR-RES cells = assay: Cell killing by free drugs or MMAF-ADCs with or without verapamil; assay type: cell-based; settings: for Fold Difference: IC50 drug alone divided by IC50 drug plus verapamil; for IC50: Homo sapiens
Protocol: NCI/ADR-RES cells were plated and allowed to adhere. Neat culture medium or medium containing 40 μM verapamil was added, and the cultures were incubated for 4 hr. Serial dilutions of the free drugs (doxorubicin, cisplatin or MMAF) or MMAF ADCs (cBR96-vcMMAF or mOKT9-vcMMAF) were then added. The cultures were incubated to 96 hr and labeled with resazurin. Referring to Table 7, the values are the IC50 in […] (doxorubicin, cisplatin, MMAF) or […] (cBR96-vcMMAF, mOKT9-vcMMAF) determined from 4-parameter curve fits. The fold difference is determined by dividing the IC50 from the drug alone treatment by that of the drug treated plus verapamil cultures.

[2] = test system: HCT-15 (colon carcinoma) cells; assay: Alteration of drug potency by verapamil, free drugs; assay type: cell-based; settings: for Fold Difference: IC50 drug alone divided by IC50 verapamil plus drug, HCT-15; for IC50: HCT-15, drug alone, 96 hr, resazurin
Protocol: Verapamil is a known inhibitor of the P-gp transporter. The following study was conducted to measure the effect of verapamil on P-gp-mediated transport of doxorubicin, vincristine, cisplatin and MMAF.
HCT-15 (colon carcinoma) cells were plated and allowed to adhere to the plates. Neat culture medium or medium containing 40 μM verapamil was added, and the cultures were incubated for 4 hr. Serial dilutions of doxorubicin, vincristine, cisplatin or MMAF were then added. The cultures were incubated to 96 hr and labeled with resazurin. Referring to Table 4, the values shown are the IC50 determined from 4-parameter curve fits. The fold difference was determined by dividing the IC50 of the drug alone treatment by that of the verapamil plus drug treated cultures.

NCI-H69 and NCI-H69/LX-4 = assay: Drug sensitivity of parental and drug resistant subline pair (resazurin); assay type: cell-based, human; settings: IC50 of resistant line divided by IC50 of parental line, 96 hr
Protocol: as §1, §2

A2780 and A2780adr = assay: as above; assay type: cell-based, human; settings: IC50 of resistant line divided by IC50 of parental line, 96 hr
Protocol: as §1, §2

MES-SA and MES-SA/Dx5 = assay: as above; assay type: cell-based; settings: IC50 of resistant line divided by IC50 of parental line, 96 hr
Protocol: as §1, §2

HL60 and HL60/RV = assay: as above; assay type: cell-based; settings: IC50 of resistant line divided by IC50 of parental line, 96 hr
Protocol: as §1, §2

H69 and H69/LX4 = assay: Cytotoxic effects on H69 and its P-glycoprotein overexpressing counterpart; assay type: cell-based, human; settings: free drugs, 6 days, Alamar Blue (FIG. 2A, 2B)
Protocol: (§3) Log phase cultures of cells were collected and cells plated at seeding densities ranging from 500-10,000 cells/well according to pre-determined conditions. After incubating 24 h to allow surface protein reconstitution, serial dilutions of test molecules were added and cultures incubated a further 4-6 days depending on cell line. Assessment of cellular growth and data reduction to generate IC50 values was done using Alamar Blue (Biosource International, Camarillo, Calif.) dye reduction assay as previously described, according to previously published methods (Doronina et al., supra; Hamblett et al., supra; Law et al., 2004, Clin. Cancer Res. 10:7842-51; Francisco et al., supra). Briefly, a 40% solution (wt/vol) of Alamar Blue was freshly prepared in complete media just before cultures were added. Ninety-two hours after drug exposure, Alamar Blue solution was added to cells to constitute 10% culture volume. Cells were incubated for 4 h, and dye reduction was measured on a Fusion HT fluorescent plate reader (Packard Instruments, Meriden, Conn.).

[3] = test system: HCT-15 (colon carcinoma) cells; assay: Alteration of drug potency by verapamil, free drugs; assay type: cell-based; settings: read-out: IC50 +10 μM Verapamil, HCT-15, verapamil 4 hr before drug, 96 hr, resazurin
[4] = Maximum tolerated dose of free drugs in mice; assay type: in vivo; settings: free drug
Text: The synthesis of MMAE proceeded through a solution-phase route involving the coupling of the amino-protected N-terminal trimer to the C-terminal dimer. Due to the convergent nature of the process, it was possible to produce a large number of auristatins with varied solubilities, potencies and pharmacokinetic properties. […] MMAF-OMe is a prodrug of MMAF (FIG. 1), with the potential of having facilitated intracellular uptake due to the presence of a neutral C-terminus. In addition, intracellular ester hydrolysis of MMAF-OMe should rapidly generate MMAF, a C-terminally charged molecule expected to have impaired membrane translocation capabilities. […] In addition, the maximum tolerated dose in mice of MMAF (>16 mg/kg) was much higher than MMAE (1 mg/kg). Thus, MMAF was of great interest for targeted delivery, since the free drug had attenuated potency, lower toxicity, and much higher aqueous solubility compared to MMAE. Facilitated intracellular transport was expected to greatly enhance its activity.

[5] = test system: Caki-1 renal cell carcinoma; assay: In vitro growth inhibition (Alamar Blue); assay type: cell-based; settings: Table 8, free auristatins, 96 h
Protocol: as §3

[6] = test system: H3396 breast carcinoma cells; assay: In vitro growth inhibition (Alamar Blue); assay type: cell-based; settings: Table 8, free auristatins, 96 h
Protocol: as §3

[7] = test system: 786-O renal cell carcinoma; assay: In vitro growth inhibition (Alamar Blue); assay type: cell-based; settings: Table 8, free auristatins, 96 h
Protocol: as §3

Karpas 299 cells = assay: In vitro growth inhibition (Alamar Blue); assay type: cell-based, human; settings: 96 h
Protocol: as §3

hematologic cell lines = settings: previously displayed (Doronina et al.; Law et al.); cited from earlier work
L540cy = assay: In vitro growth inhibition (Alamar Blue); assay type: cell-based; settings: 96 h, ADC concentrations represented by the drug component
Protocol: as §3
(§4) Cells were exposed to the ADCs continuously for 96 h, and the cytotoxic effects, as determined by Alamar Blue conversion, were compared to those of free MMAF.

HH = assay: In vitro growth inhibition (Alamar Blue); assay type: cell-based; settings: 96 h, ADC concentrations represented by the drug component
Protocol: as §3, §4

RPMI 6666 = assay: In vitro growth inhibition (Alamar Blue); assay type: cell-based; settings: 96 h, ADC concentrations represented by the drug component
Protocol: as §3, §4

SR-786 = assay: In vitro growth inhibition (Alamar Blue); assay type: cell-based, human; settings: 96 h, ADC concentrations represented by the drug component
Protocol: as §3, §4

L428 = assay: In vitro growth inhibition (Alamar Blue); assay type: cell-based, human; settings: 96 h, ADC concentrations represented by the drug component
Protocol: as §3, §4

HDLM-2 = assay: In vitro growth inhibition (Alamar Blue); assay type: cell-based, human; settings: 96 h, ADC concentrations represented by the drug component
Protocol: as §3, §4

SU-DHL-1 = assay: In vitro growth inhibition (Alamar Blue); assay type: cell-based, human; settings: 96 h, ADC concentrations represented by the drug component
Protocol: as §3, §4

KMH-2 = assay: In vitro growth inhibition (Alamar Blue); assay type: cell-based, human; settings: 96 h, ADC concentrations represented by the drug component
Protocol: as §3, §4

SUP-M2 = assay: In vitro growth inhibition (Alamar Blue); assay type: cell-based, human; settings: 96 h, ADC concentrations represented by the drug component
Protocol: as §3, §4

DEL = assay: In vitro growth inhibition (Alamar Blue); assay type: cell-based, human; settings: 96 h, ADC concentrations represented by the drug component
Protocol: as §3, §4

Aqueous solubility = assay type: physicochemical
WSU-NHL = assay: In vitro growth inhibition (Alamar Blue), CD30 negative line; assay type: cell-based, human; settings: 96 h, ADC concentrations represented by the drug component
Protocol: as §3, §4

[8] = test system: panel of CD30 positive and negative hematologic cell lines; assay: In vitro growth inhibition, panel of hematologic cell lines; assay type: cell-based; settings: mean over the lines of Table 9; ADC concentrations represented by the drug component; read-out: IC50 Mean (all lines)
Protocol: as §3, §4

Row | Compound | Mean Fold Resistance [1] [fold] | Fold Difference (NCI/ADR-RES cells) [fold] | Fold Difference [2] | Fold Resistance NCI-H69/LX4 / NCI-H69 (NCI-H69 and NCI-H69/LX-4) [fold] | Fold Resistance A2780adr / A2780 (A2780 and A2780adr) [fold] | Fold Resistance MES-SA/Dx5 / MES-SA (MES-SA and MES-SA/Dx5) [fold] | Fold Resistance HL60/RV / HL60 (HL60 and HL60/RV) [fold] | IC50 [5] [nM] | IC50 [6] [nM] | IC50 [7] [nM] | IC50 (Karpas 299 cells; Table 8, free auristatins) [nM] | also measured
1 | N.N.[Cl][Pt][Cl] [Cisplatin] | 5.5 | 0.88 | 1.04 fold | 4.7 | 2.7 | 1.6 | 13 | – | – | – | – | difference in sensitivity of parent and resistant line [1]: thirteen
2 | CC[C@H](C)[C@@H]([C@@H](CC(=O)N1CCC[C@H]1[C@H](OC)[C@@H](C)C(=O)N[C@@H](Cc1ccccc1)c1nccs1)OC)N(C)C(=O)[C@@H](NC(=O)[C@H](C(C)C)N(C)C)C(C)C [Dolastatin 10] | >500 | – | – | – | 500 | 8275 | – | – | – | – | – | –
3 | COc1cccc2c1C(=O)c1c(O)c3c(c(O)c1C2=O)C[C@@](O)(C(=O)CO)C[C@@H]3O[C@H]1C[C@H](N)[C@H](O)[C@H](C)O1 [Doxorubicin] | 88 | 17.9 | 5.4 fold | 103 | 137 | 83 | 24 | – | – | – | – | fold less sensitive H69/LX-4 compared to the parental cell (H69 and H69/LX4): approximately 100 fold; IC50 (NCI/ADR-RES cells; 96 h, read-out: IC50 Drug or ADC Only): 10000 nM; IC50 (NCI/ADR-RES cells; read-out: IC50 (Drug or ADC) + 10 μM Verapamil): 560 nM; IC50 ([2]; Homo sapiens): 335 nM; IC50 ([3]; Homo sapiens): 62 nM
4 | CC[C@H](C)[C@@H]([C@@H](CC(=O)N1CCC[C@H]1[C@H](OC)[C@@H](C)C(=O)N[C@H](C)[C@@H](O)c1ccccc1)OC)N(C)C(=O)[C@@H](NC(=O)[C@@H](NC)C(C)C)C(C)C [MMAE, reference compound] (H-[NMeV]V[Dil][Dolaproine]-X1) | – | – | – | – | – | – | – | 0.7 | 0.1 | 2 | 0.5 | maximum tolerated dose in mice [4]: 1 mg/kg; IC50 (hematologic cell lines): 1 to 5 nM
5 | CC[C@H](C)[C@@H]([C@@H](CC(=O)N1CCC[C@H]1[C@H](OC)[C@@H](C)C(=O)N[C@@H](Cc1ccccc1)C(=O)O)OC)N(C)C(=O)[C@@H](NC(=O)[C@@H](NC)C(C)C)C(C)C [MMAF, N-methylvaline-valine-dolaisoleuine-dolaproline-phenylalanine] (H-[NMeV]V[Dil][Dolaproine]F-OH) | 5 | 6.4 | 5.7 fold | 4 | 7.5 | 3 | 6 | 200 | 105 | 257 | 119 | maximum tolerated dose in mice [4]: > 16 mg/kg; IC50 (L540cy): 70.4 nM; IC50 (HH): 30.7 nM; IC50 (RPMI 6666): 164 nM; fold less sensitive H69/LX-4 compared to the parental cell (H69 and H69/LX4): 3 fold; difference in sensitivity of parent and resistant line [1]: thirteen; IC50 (SR-786): 38.1 nM; IC50 (L428): 68 nM; IC50 (HDLM-2): 66 nM; IC50 (SU-DHL-1): 34.7 nM; IC50 (KMH-2): 45.4 nM; IC50 (SUP-M2): 79.7 nM; IC50 (DEL): 69 nM; aqueous solubility compared to MMAE (Aqueous solubility): much higher; IC50 [2]: 1000 nM; IC50 (Karpas 299 cells; ADC concentrations represented by the drug component): 119 nM; IC50 [3]: 174 nM; IC50 (WSU-NHL): 60.3 nM; IC50 [8]: 70.4 nM
6 | CC[C@H](C)[C@@H]([C@@H](CC(=O)N1CCC[C@H]1[C@H](OC)[C@@H](C)C(=O)N[C@@H](Cc1ccccc1)C(=O)OC)OC)N(C)C(=O)[C@@H](NC(=O)[C@@H](NC)C(C)C)C(C)C [MMAF-OMe] (H-[NMeV]V[Dil][Dolaproine]F-OMe) | – | – | – | – | – | – | – | < 0.001 | < 0.001 | 0.01 | < 0.001 | –
7 | CC[C@]1(O)C[C@H]2CN(CCc3c([nH]c4ccccc34)[C@@](C(=O)OC)(c3cc4c(cc3OC)N(C=O)[C@H]3[C@@](O)(C(=O)OC)[C@H](OC(C)=O)[C@]5(CC)C=CCN6CC[C@]43[C@@H]65)C2)C1 [Vincristine] | >260 | – | >10,000 fold | 56888 | 2000 | 284 | 258 | – | – | – | – | IC50 ([2]; Homo sapiens): 70 nM; IC50 ([3]; Homo sapiens): < 0.001 nM
